Calls of active or inactive are those of the source. No cut-off for these calls is given here.
Columns and labels:
HCT-116 [1] = test: Photocytotoxicity against human HCT116 cells assessed as growth inhibition irradiated at 350 nm at 4, 24, 48 hrs post compound addition for 5 mins measured after 72 hrs by MTT assay; assay type: functional, cell-based; conditions: HCT-116, light or radiation study
[2] = Dark toxicity against human HCT116 cells after 72 hrs by MTT assay; assay type: cell-based, HCT-116
HCT-116 [3] = test: Photocytotoxicity against human HCT116 cells assessed as growth inhibition irradiated at 420 nm at 4, 24, 48 hrs post compound addition for 5 mins measured after 72 hrs by MTT assay; assay type: functional, cell-based; conditions: HCT-116, light or radiation study
[4] = Dark toxicity against human H460 cells after 72 hrs by MTT assay; assay type: cell-based, NCI-H460
NCI-H460 [5] = test: Photocytotoxicity against human H460 cells assessed as growth inhibition irradiated at 350 nm at 4, 24, 48 hrs post compound addition for 5 mins measured after 72 hrs by MTT assay; assay type: functional, cell-based; conditions: NCI-H460, light or radiation study
NCI-H460 [6] = test: Photocytotoxicity against human H460 cells assessed as growth inhibition irradiated at 420 nm at 4, 24, 48 hrs post compound addition for 5 mins measured after 72 hrs by MTT assay; assay type: functional, cell-based; conditions: NCI-H460, light or radiation study
MCF7 [7] = test: Photocytotoxicity against human MCF7 cells assessed as growth inhibition irradiated at 350 nm at 4, 24, 48 hrs post compound addition for 5 mins measured after 72 hrs by MTT assay; assay type: functional, cell-based; conditions: MCF7, light or radiation study
MCF7 [8] = test: Photocytotoxicity against human MCF7 cells assessed as growth inhibition irradiated at 420 nm at 4, 24, 48 hrs post compound addition for 5 mins measured after 72 hrs by MTT assay; assay type: functional, cell-based; conditions: MCF7, light or radiation study
[9] = Dark toxicity against human SUM159 cells after 72 hrs by MTT assay; assay type: cell-based, SUM-159-PT
HMLE [10] = test: Anticlonogenic activity against HMLE-shEcad cells at 0.5 to 1 uM irradiated at 350 nm at 4 hrs post compound addition for 5 mins for 5 mins measured after 24 hrs by crystal violet staining-based assay; assay type: functional, cell-based; conditions: Homo sapiens
SUM-159-PT [11] = test: Photocytotoxicity against human SUM159 cells assessed as growth inhibition irradiated at 420 nm at 4, 24, 48 hrs post compound addition for 5 mins measured after 72 hrs by MTT assay; assay type: functional, cell-based; conditions: light or radiation study
[12] = Dark toxicity against HMLE-shGFP cells after 72 hrs by MTT assay; assay type: cell-based; conditions: human
[13] = Photocytotoxicity against HMLE-shGFP cells assessed as growth inhibition irradiated at 350 nm at 4, 24, 48 hrs post compound addition for 5 mins measured after 72 hrs by MTT assay; assay type: cell-based; conditions: Homo sapiens, light or radiation study
[14] = Photocytotoxicity against HMLE-shGFP cells assessed as growth inhibition irradiated at 420 nm at 4, 24, 48 hrs post compound addition for 5 mins measured after 72 hrs by MTT assay; assay type: cell-based; conditions: Homo sapiens, light or radiation study
[15] = Dark toxicity against HMLE-shEcad cells after 72 hrs by MTT assay; assay type: cell-based; conditions: human
[16] = Photocytotoxicity against HMLE-shEcad cells assessed as growth inhibition irradiated at 350 nm at 4, 24, 48 hrs post compound addition for 5 mins measured after 72 hrs by MTT assay; assay type: functional, cell-based; conditions: Homo sapiens, light or radiation study
[17] = Photocytotoxicity against HMLE-shEcad cells assessed as growth inhibition irradiated at 420 nm at 4, 24, 48 hrs post compound addition for 5 mins measured after 72 hrs by MTT assay; assay type: functional, cell-based; conditions: Homo sapiens, light or radiation study
[18] = Anticlonogenic activity against HMLE-shGFP cells at 0.5 to 1 uM irradiated at 350 nm at 4 hrs post compound addition for 5 mins measured after 24 hrs by crystal violet staining-based assay; assay type: ADME, cell-based; conditions: human
[19] = Cell cycle arrest in HMLE-shEcad cells assessed as delay in G1/S phase at 1 to 10 uM after 24 to 48 hrs in absence of irradiation by propidium iodide staining-based flow cytometric method; conditions: human
HMLE [20] = test: Cell cycle arrest in HMLE-shEcad cells assessed as accumulation at S phase at 1 to 10 uM irradiated at 420 nm at 4 hrs post compound addition for 5 mins measured after 24 to 48 hrs by propidium iodide staining-based flow cytometric method; assay type: functional; conditions: Homo sapiens
HMLE [21] = test: Cell cycle arrest in HMLE-shEcad cells assessed as accumulation at G2/M phase at 1 to 10 uM irradiated at 420 nm at 4 hrs post compound addition for 5 mins measured after 24 to 48 hrs by propidium iodide staining-based flow cytometric method; assay type: functional; conditions: Homo sapiens
[22] = Cell cycle arrest in HMLE-shGFP cells assessed as accumulation at S phase at 1 to 10 uM irradiated at 420 nm at 4 hrs post compound addition for 5 mins measured after 24 to 48 hrs by propidium iodide staining-based flow cytometric method; conditions: human
[23] = Cell cycle arrest in HMLE-shGFP cells assessed as accumulation at G2/M phase at 1 to 10 uM irradiated at 420 nm at 4 hrs post compound addition for 5 mins measured after 24 to 48 hrs by propidium iodide staining-based flow cytometric method; conditions: human
[24] = Cytotoxicity against HMLE-shGFP cells at 10 uM irradiated at 420 nm at 4 hrs post compound addition for 5 mins measured after 48 hrs by propidium iodide staining-based flow cytometric method; assay type: cell-based; conditions: human
HMLE [25] = test: Cytotoxicity against HMLE-shEcad cells at 10 uM irradiated at 420 nm at 4 hrs post compound addition for 5 mins measured after 48 hrs by propidium iodide staining-based flow cytometric method; assay type: functional, cell-based; conditions: Homo sapiens
MCF7 [26] = test: Cell cycle arrest in human MCF7 cells in presence of irradiation; assay type: functional, cell-based
SUM-159-PT [27] = test: Cell cycle arrest in human SUM159 cells in presence of irradiation; assay type: functional, cell-based
[28] = Induction of reactive oxygen species generation in HMLE-shGFP cells at 10 uM irradiated at 420 nm for 5 mins measured after 2 hrs by H2DCF-DA dye-based FACS analysis relative to non-irradiated cells; assay type: cell-based; conditions: human
[29] = Induction of reactive oxygen species generation in HMLE-shEcad cells at 10 uM irradiated at 420 nm for 5 mins measured after 2 hrs by H2DCF-DA dye-based FACS analysis relative to non-irradiated cells; assay type: functional, Homo sapiens
[30] = Drug uptake in cytoplasm of HMLE-shGFP cells at 5 uM irradiated with UV-light measured after 2 to 3 hrs by confocal microscopic method; assay type: ADME, subcellular; conditions: human
[31] = Drug uptake in cytoplasm of HMLE-shEcad cells at 5 uM irradiated with UV-light measured after 2 to 3 hrs by confocal microscopic method; assay type: ADME, subcellular; conditions: human
[32] = Drug uptake in nucleus of HMLE-shGFP cells at 5 uM irradiated with UV-light measured after 2 to 3 hrs by confocal microscopic method; assay type: ADME, subcellular; conditions: human
[33] = Drug uptake in nucleus of HMLE-shEcad cells at 5 uM irradiated with UV-light measured after 2 to 3 hrs by confocal microscopic method; assay type: ADME, subcellular; conditions: human
[34] = Dark toxicity against human MCF7 cells after 72 hrs by MTT assay; assay type: cell-based
[35] = Cell cycle arrest in HMLE-shEcad cells at 1 to 5 uM after 24 to 48 hrs in absence of irradiation by propidium iodide staining-based flow cytometric method; conditions: human
[36] = Cell cycle arrest in HMLE-shGFP cells at 1 to 5 uM after 24 to 48 hrs in absence of irradiation by propidium iodide staining-based flow cytometric method; conditions: human
HMLE [37] = test: Cell cycle arrest in HMLE-shEcad cells assessed as delay in S/G2 phase at 5 uM irradiated at 420 nm at 4 hrs post compound addition for 5 mins measured after 24 to 48 hrs by propidium iodide staining-based flow cytometric method; assay type: functional; conditions: Homo sapiens
[38] = Cell cycle arrest in HMLE-shGFP cells assessed as delay in S/G2 phase at 5 uM irradiated at 420 nm at 4 hrs post compound addition for 5 mins measured after 24 to 48 hrs by propidium iodide staining-based flow cytometric method; conditions: human
[39] = Drug uptake in cytoplasm of HMLE-shGFP cells at 5 uM irradiated at 420 nm for 5 mins measured after 2 to 3 hrs by confocal microscopic method; assay type: ADME, subcellular; conditions: human
[40] = Drug uptake in nucleus of HMLE-shGFP cells at 5 uM irradiated at 420 nm for 5 mins measured after 2 to 3 hrs by confocal microscopic method; assay type: ADME, subcellular; conditions: human
[41] = Drug uptake in cytoplasm of HMLE-shGFP cells at 10 uM in absence of irradiation measured after 2 to 3 hrs by confocal microscopic method; assay type: ADME, subcellular; conditions: human
[42] = Drug uptake in nucleus of HMLE-shGFP cells at 10 uM in absence of irradiation measured after 2 to 3 hrs by confocal microscopic method; assay type: ADME, subcellular; conditions: human
[43] = Drug uptake in plasma membranes of HMLE-shGFP cells at 5 uM irradiated at 420 nm for 5 mins measured after 2 to 3 hrs by confocal microscopic method; assay type: ADME, cell membranes, Plasma membrane; conditions: human
[44] = Drug uptake in intracellular membranes of HMLE-shGFP cells at 5 uM irradiated at 420 nm for 5 mins measured after 2 to 3 hrs by confocal microscopic method; assay type: ADME, cell membranes, Intracellular membrane; conditions: human
Calf thymus DNA [45] = test: Binding affinity to calf thymus DNA at 4.2 x 10^-5 M by fluorescence spectrocopic method; assay type: nucleic-acid assay; conditions: Bos taurus
Calf thymus DNA [46] = test: Binding affinity to calf thymus DNA at 4.2 x 10^-5 M in presence of irradiation at 420 nm for 5 mins by fluorescence spectrocopic method; assay type: nucleic-acid assay; conditions: Bos taurus
Calf thymus DNA [47] = test: Binding affinity to calf thymus DNA at 4.2 x 10^-5 M by UV-vis spectrocopic method; assay type: nucleic-acid assay; conditions: Bos taurus

Row | Compound | IC50 (HCT-116 [1]) | IC50 at 72 h [2] | IC50 (HCT-116 [3]) | IC50 at 72 h [4] | IC50 (NCI-H460 [5]) | IC50 (NCI-H460 [6]) | IC50 (MCF7 [7]) | IC50 (MCF7 [8]) | IC50 at 72 h [9] | Activity (HMLE [10]) | IC50 (SUM-159-PT [11]) | IC50 at 72 h [12] | IC50 [13] | IC50 [14] | IC50 at 72 h [15] | IC50 [16] | IC50 [17] | Activity [24] | Activity (HMLE [25]) | Activity (MCF7 [26]) | further results
1 | OCc1ccc2cc3ccccc3cc2c1 | 1 µM | > 100 µM | 2 µM | 33 µM | 1 µM | 2 µM | 0.5 µM | 2 µM | 13 µM | inactive | 1 µM | 33 µM | 0.6 µM | 10 µM | 22 µM | 1 µM | 2 µM | Toxic | Active | inactive | Activity [18]: Non-Toxic; Activity [19]: Toxic; Activity (HMLE [20]): Active; Activity (HMLE [21]): Active; Activity [22]: Non-Toxic; Activity [23]: Non-Toxic; Activity (SUM-159-PT [27]): inactive; fold change (FC) [28]: 4; fold change (FC) [29]: 7; Drug uptake [30]: Active; Drug uptake [31]: Active; Drug uptake [32]: Not Active; Drug uptake [33]: Not Active
2 | OCc1cc2cc3ccccc3cc2cc1O | 2 µM | ≥ 100 µM | 1 µM | ≥ 100 µM | 15 µM | 10 µM | 2 µM | 3 µM | 11 µM | Active | 2 µM | 11 µM | 0.7 µM | 1 µM | 17 µM | 2 µM | 1 µM | Toxic | Active | inactive | IC50 at 72 h [34]: ≥ 100 µM; Activity [35]: Non-Toxic; Activity [36]: Non-Toxic; Activity (HMLE [37]): Active; Activity [38]: Toxic; Activity (SUM-159-PT [27]): inactive; Drug uptake [39]: Active; Drug uptake [40]: Not Active; Drug uptake [41]: Active; Drug uptake [42]: Not Active; Drug uptake [43]: Active; Drug uptake [44]: Active; Activity (Calf thymus DNA [45]): inactive; Activity (Calf thymus DNA [46]): Active; Activity (Calf thymus DNA [47]): inactive

From ChEMBL document CHEMBL4138121, “Selective photocytotoxicity of anthrols on cancer stem-like cells: The effect of quinone methides or reactive oxygen species” (Eur J Med Chem, 2017)
